How the values were obtained:
guinea pig [1] = test: Local anesthetic properties, guinea pig wheal method, topical application (Table 1); format: in vivo; parameters: key: a positive (+) response is recorded, showing no anesthetic activity; loss in sensation (−); conditions: 2% w/w, n = 6
guinea pig [2] = test: Local anesthetic properties, intradermal wheal method in guinea pigs, intradermal injection (Table 2); format: in vivo; conditions: 2% w/w, n = 6
Method: Intra Dermal Wheal Method in Guinea Pigs:
The hairs on the back of guinea pigs were shaved. The normal response of the animal with a pinprick on both sides of the back was tested with 0.2 ml of the herbal formulations were injected intradermally on the left side and 0.2 ml of a normal saline (0.9%) was injected on the right side of the back. The sides were demarcated by ink. Six pinpricks were applied at interval of 2 to 3 s. Pinpricks were repeated after every 5 min. Animals showing no squeak response to all the six pinpricks were considered positive to anaesthetic effect.

**Q.** For `CCN(CC)CC(=O)Nc1c(C)cccc1C` [Lignocaine], which “Response at 0 minutes after topical application” value (guinea pig [1]; 0 min) is on record?
**A.** Its value is “+”.

**Q.** What about the “Response at 5 minutes after topical application” value (guinea pig [1]; 5 min) of the same compound?
**A.** Its value is “+”.

**Q.** And the “Response at 10 minutes after topical application” value (guinea pig [1]; 10 min)?
**A.** Its value is “−”.

**Q.** What about the “Response at 15 minutes after topical application” value (guinea pig [1]; 15 min) of the same compound?
**A.** The value was “−”.

**Q.** What about the “Response at 20 minutes after topical application” value (guinea pig [1]; 20 min) of the same compound?
**A.** The value was “−”.

**Q.** And the “Response at 30 minutes after topical application” value (guinea pig [1]; 30 min)?
**A.** The value was “−”.

**Q.** And the “Response at 45 minutes after topical application” value (guinea pig [1]; 45 min)?
**A.** The value was “−”.

**Q.** And the “Response at 60 minutes after topical application” value (guinea pig [1]; 60 min)?
**A.** The value was “−”.

**Q.** And the “Response at 120 minutes after topical application” value (guinea pig [1]; 120 min)?
**A.** The value was “−”.

**Q.** And the “Response at 0 minutes after intradermal injection” value (guinea pig [2]; 0 min)?
**A.** The value was “+”.

**Q.** What about the “Response at 5 minutes after intradermal injection” value (guinea pig [2]; 5 min) of the same compound?
**A.** Its value is “−”.

**Q.** And the “Response at 10 minutes after intradermal injection” value (guinea pig [2]; 10 min)?
**A.** Its value is “−”.

**Q.** And the “Response at 15 minutes after intradermal injection” value (guinea pig [2]; 15 min)?
**A.** Its value is “−”.

**Q.** What about the “Response at 20 minutes after intradermal injection” value (guinea pig [2]; 20 min) of the same compound?
**A.** Its value is “−”.

**Q.** What about the “Response at 30 minutes after intradermal injection” value (guinea pig [2]; 30 min) of the same compound?
**A.** The value was “−”.

**Q.** What about the “Response at 45 minutes after intradermal injection” value (guinea pig [2]; 45 min) of the same compound?
**A.** Its value is “−”.

**Q.** And the “Response at 60 minutes after intradermal injection” value (guinea pig [2]; 60 min)?
**A.** Its value is “−”.
